Calls of active or inactive are those of the source. The rule behind the calls is not given here.

Series [1] deals with Epidermal growth factor receptor (Homo sapiens, UniProt P00533). The series can be described thus: Inhibition of EGFR (unknown origin) assessed as incorporation of 33Pi after 1 hr by ELISA. For orientation: ELISA stands for enzyme-linked immunosorbent assay.
The test system of series [2] is KB. The series can be described thus: Antiproliferative activity against human KB cells expressing EGFR and Src after 48 hrs by SRB assay. It counts as functional, cell-based. (In general: The SRB assay estimates cell density from bound dye.)
The subject of series [3] is A498. Briefly: Antiproliferative activity against human A498 cells expressing EGFR and Src after 48 hrs by SRB assay. It counts as functional, cell-based. The note with it: A498, 48 h.
The subject of series [4] is Mus musculus. The series can be described thus: Toxicity in mouse LLC cells allografted SCID mouse assessed as mortality at 100 mg/kg, po qd for 14 days. It counts as organism-based. The note with it: in vivo, 336 h.
Series [5] deals with Lewis lung carcinoma cell line. Briefly: Antitumor activity against mouse LLC cells allografted in SCID mouse assessed as inhibition of tumor growth at 100 mg/kg, po qd for 14 days. The format is functional, organism-based.
For series [6], the system named is Lewis lung carcinoma cell line. Briefly: Antitumor activity against mouse LLC cells allografted in SCID mouse assessed as extension of survival period at 100 mg/kg, po qd for 14 days. It counts as functional, organism-based.
The subject of series [7] is Mus musculus. The series can be described thus: Toxicity in mouse LLC cells allografted SCID mouse assessed as change in body weight at 100 mg/kg, po qd for 14 days. It counts as organism-based. The note with it: in vivo, 336 h.

Epidermal growth factor receptor, sequence (P00533 whole entry): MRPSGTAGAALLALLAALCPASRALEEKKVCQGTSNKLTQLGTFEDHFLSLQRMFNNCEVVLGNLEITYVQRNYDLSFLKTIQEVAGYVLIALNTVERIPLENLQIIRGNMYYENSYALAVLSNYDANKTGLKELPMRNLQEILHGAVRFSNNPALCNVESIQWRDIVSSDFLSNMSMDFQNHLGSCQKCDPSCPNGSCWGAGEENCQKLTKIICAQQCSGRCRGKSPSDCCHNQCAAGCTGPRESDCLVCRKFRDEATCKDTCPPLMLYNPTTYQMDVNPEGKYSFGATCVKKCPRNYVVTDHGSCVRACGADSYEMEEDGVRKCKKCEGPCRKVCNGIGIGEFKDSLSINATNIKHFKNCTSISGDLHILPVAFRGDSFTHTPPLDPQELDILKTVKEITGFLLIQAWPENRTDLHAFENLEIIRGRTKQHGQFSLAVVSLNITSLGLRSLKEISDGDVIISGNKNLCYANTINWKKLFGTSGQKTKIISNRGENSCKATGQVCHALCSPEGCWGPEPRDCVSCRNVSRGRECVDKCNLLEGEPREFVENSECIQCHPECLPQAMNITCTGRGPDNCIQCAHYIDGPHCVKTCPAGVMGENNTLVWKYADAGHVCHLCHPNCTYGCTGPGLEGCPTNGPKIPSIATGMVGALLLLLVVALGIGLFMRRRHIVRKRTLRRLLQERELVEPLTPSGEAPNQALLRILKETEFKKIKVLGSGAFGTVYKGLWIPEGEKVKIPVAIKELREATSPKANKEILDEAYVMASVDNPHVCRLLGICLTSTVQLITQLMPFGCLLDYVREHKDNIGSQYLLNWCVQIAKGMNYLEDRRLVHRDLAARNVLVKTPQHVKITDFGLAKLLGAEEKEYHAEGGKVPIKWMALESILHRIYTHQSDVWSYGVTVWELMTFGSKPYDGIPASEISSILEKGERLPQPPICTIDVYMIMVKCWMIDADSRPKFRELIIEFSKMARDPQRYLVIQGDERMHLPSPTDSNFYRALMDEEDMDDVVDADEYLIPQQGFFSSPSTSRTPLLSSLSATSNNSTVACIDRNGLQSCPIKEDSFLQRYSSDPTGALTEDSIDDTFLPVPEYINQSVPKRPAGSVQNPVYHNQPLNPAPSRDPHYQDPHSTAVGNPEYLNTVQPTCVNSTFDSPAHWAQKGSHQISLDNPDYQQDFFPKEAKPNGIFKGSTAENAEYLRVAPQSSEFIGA

For `CCOC(=O)CCCn1c(=O)oc2cc3ncnc(N[C@H](C)c4ccccc4)c3cc21`, the IC50 – broadly, the concentration at which inhibition is half-maximal – in series [1] was over 10 µM. On the same count and under the same terms, the same measure for `CCOC(=O)CCCn1c(=O)oc2cc3ncnc(NCc4ccccc4)c3cc21`: over 10 µM; for `COCCn1c(=O)oc2cc3ncnc(Nc4cccc(C(C)=O)c4)c3cc21`: 0.56 µM. With `CCOC(=O)CCCn1c(=O)oc2cc3ncnc(Nc4ccc(S(N)(=O)=O)cc4)c3cc21`, the figures for the IC50 in series [1], in series [2] and in series [3] were over 10 µM, 18.7 µM and 8 µM, respectively.

In the case of `CCOC(=O)CCCn1c(=O)oc2cc3ncnc(Nc4ccccc4)c3cc21`, the 50% inhibitory concentration (IC50) in series [1] was over 10 µM.

Regarding `CCOC(=O)CCCn1c(=O)oc2cc3ncnc(Nc4ccc(OCc5ccccc5)c(Cl)c4)c3cc21`, the IC50 in series [1] was over 10 µM. In the case of `COCCn1c(=O)oc2cc3ncnc(Nc4ccc(OC)cc4)c3cc21`, the results for the half-maximal inhibitory concentration (IC50) in series [1], in series [2] and in series [3] were 5.1 µM, 11.7 µM and 33.5 µM, respectively.

Turning to `CCOC(=O)CCCn1c(=O)oc2cc3ncnc(Nc4ccc(OCc5ccc(OC)cc5)c(Cl)c4)c3cc21`, in series [1], the IC50 is over 10 µM.

For the compound `CCOC(=O)CCCn1c(=O)oc2cc3ncnc(Nc4ccc(C(=O)OCc5ccc(C#N)cc5)cc4)c3cc21`, the IC50 in series [1] is over 10 µM. Still for that read-out and setting: then `C#Cc1cccc(Nc2ncnc3cc4oc(=O)n(CCOC)c4cc23)c1`, with 0.19 µM; and `COCCn1c(=O)oc2cc3ncnc(Nc4ccc(S(N)(=O)=O)cc4)c3cc21`, with over 10 µM; and `COCCn1c(=O)oc2cc3ncnc(Nc4ccc(OCc5nccc(OCC(F)(F)F)c5C)cc4)c3cc21`, with 0.34 µM. The same measure, in the same setting: the same measure for `CCOC(=O)CCCn1c(=O)oc2cc3ncnc(Nc4ccc(OCc5nccc(OCC(F)(F)F)c5C)cc4)c3cc21`: 0.78 µM. Take `COCCn1c(=O)oc2cc3ncnc(Nc4ccc(F)c(F)c4)c3cc21`: the half-inhibitory concentration (IC50) in series [1] turned out to be 0.026 µM; in series [2] it was 1.1 µM; in series [3] it was 17.6 µM. `CCOC(=O)CCCn1c(=O)oc2cc3ncnc(Nc4ccc5[nH]ncc5c4)c3cc21`: the IC50 in series [1] worked out at 0.13 µM; in series [2], 38.4 µM; in series [3] it was 26.8 µM.

For `C#Cc1cccc(Nc2ncnc3cc4oc(=O)n(CCCC(=O)OCC)c4cc23)c1`, the IC50 in series [1] was determined as 5.7 µM. As for `CCOC(=O)CCCn1c(=O)oc2cc3ncnc(Nc4ccc(C(=O)OCc5ccc(Cl)cc5)cc4)c3cc21`, the IC50 in series [2] is 5.5 µM; in series [3], 8.7 µM. Turning to `CCOC(=O)CCCn1c(=O)oc2cc3ncnc(Nc4ccc(OC(C)C)cc4)c3cc21`, the values for the IC50 in series [1], in series [2] and in series [3] were 0.16 µM, 18.6 µM and 41.1 µM, respectively. As for `COCCn1c(=O)oc2cc3ncnc(Nc4ccc(F)c(Cl)c4)c3cc21`, in series [1], the IC50 was found to be 0.47 µM. On to `CCOC(=O)CCCn1c(=O)oc2cc3ncnc(Nc4cccc(O)c4)c3cc21`, for which the figures for the Activity result in series [4] and in series [7] were “Non-toxic” and “Toxic”, respectively. The “growth inhibition (GI)” value in series [5] was “Active”. Besides, the IC50 in series [1] was 0.0087 µM; in series [2] it was 3.7 µM; in series [3], 7.6 µM. For the same compound, the outcome in series [6] was inactive. In the case of `COCCn1c(=O)oc2cc3ncnc(Nc4cccc(OC(C)C)c4)c3cc21`, the IC50 in series [1] was over 10 µM.

Regarding `CCOC(=O)CCCn1c(=O)oc2cc3ncnc(Nc4ccc(OCC)cc4)c3cc21`, the IC50 in series [1] was over 10 µM.

On to `CCOC(=O)CCCn1c(=O)oc2cc3ncnc(Nc4ccc(OCc5ccc(Cl)cc5)c(Cl)c4)c3cc21`, for which the IC50 in series [1] was 0.053 µM.

In the case of `CCOC(=O)CCCn1c(=O)oc2cc3ncnc(Nc4ccc(Cl)cc4)c3cc21`, the IC50 in series [1] turned out to be 1.2 µM. Turning to `COCCn1c(=O)oc2cc3ncnc(Nc4ccc(OCc5ccc(Cl)cc5)c(Cl)c4)c3cc21`, the IC50 in series [1] was determined as 1.3 µM; in series [2], 6.1 µM; in series [3], 6.2 µM. `CCOC(=O)CCCn1c(=O)oc2cc3ncnc(Nc4ccc(F)c(Cl)c4)c3cc21`: the IC50 in series [1] was 7.8 µM.

`C#Cc1cccc(Nc2ncnc3cc(OCCOC)c(OCCOC)cc23)c1` [ERLOTINIB]: the Activity result in series [4] is recorded as “Non-toxic”. Further, in series [5], the “growth inhibition (GI)” value is “Active”. For the compound `CCOC(=O)CCCn1c(=O)oc2cc3ncnc(Nc4cc(C)cc(C)c4)c3cc21`, in series [1], the IC50 was determined as 1.5 µM. Take `CCOC(=O)CCCn1c(=O)oc2cc3ncnc(N[C@@H](C)c4ccccc4)c3cc21`: in series [1], the IC50 is over 10 µM. With `COCCn1c(=O)oc2cc3ncnc(Nc4ccc(C(C)(C)C)cc4)c3cc21`, the IC50 in series [1] was over 10 µM. As to `CCOC(=O)CCCn1c(=O)oc2cc3ncnc(Nc4ccc(C)cc4)c3cc21`, the IC50 in series [1] was over 10 µM. Still for that read-out and setting: the same measure for `CCOC(=O)CCCn1c(=O)oc2cc3ncnc(Nc4ccc(C(C)(C)C)cc4)c3cc21`: over 10 µM. For the compound `CCOC(=O)CCCn1c(=O)oc2cc3ncnc(Nc4ccc(OCc5ccccn5)cc4)c3cc21`, the half-inhibitory concentration (IC50) turned out to be 16.6 µM in series [2] and 47 µM in series [3]. Take `CCOC(=O)CCCn1c(=O)oc2cc3ncnc(Nc4ccc(OC)c(OC)c4)c3cc21`: in series [1], the IC50 is over 10 µM. Turning to `CCOC(=O)c1ccc(O)c(Nc2ncnc3cc4oc(=O)n(CCOC)c4cc23)c1`, the values for the IC50 in series [1], in series [2] and in series [3] were 0.44 µM, 6.3 µM and 17.1 µM, respectively.

As for `COCCn1c(=O)oc2cc3ncnc(Nc4ccc(OC)c(OC)c4)c3cc21`, the IC50 in series [1] is 5.5 µM. `CCOC(=O)CCCn1c(=O)oc2cc3ncnc(Nc4cc(C(=O)OCC)ccc4O)c3cc21`: the IC50 in series [1] amounted to 0.0073 µM; in series [2], 19.5 µM; in series [3], 61.6 µM. The matching figures for `CCOC(=O)CCCn1c(=O)oc2cc3ncnc(Nc4ccc(O)cc4)c3cc21`: 0.02 µM, 11.1 µM and 15.2 µM. The matching figures for `CCOC(=O)CCCn1c(=O)oc2cc3ncnc(Nc4ccc(F)c(F)c4)c3cc21`: 0.14 µM, 17.9 µM and 36.4 µM.

Consider `COCCn1c(=O)oc2cc3ncnc(Nc4ccc(Cl)cc4)c3cc21`, for which the IC50 in series [1] is over 10 µM.

The record behind these values is ChEMBL document CHEMBL3611993, “Design, synthesis and biological activities of novel oxazolo[4,5-g]quinazolin-2(1H)-one derivatives as EGFR inhibitors” (Eur J Med Chem, 2015).
